What was measured:
IL1-β = IL1-β secretion from MLEC, direct treatment, ELISA; format: cell-based, mouse; settings: theophylline 1 μM, leucine 0.5 mM, resveratrol 200 nM, FIG. 4
Excerpt: (§1) Interleukin 1-β, eotaxin, and interleukin 6 were all measured via enzyme-linked immunosorbent assay using specific antibodies for each cytokine (Abcam, Cambridge, Mass.) and a horseradish peroxidase-based second antibody detection system, with chromogenic detection at 450 nm using a microplate reader (Synergy HT, BioTek Instruments, Winooski, Vt.).

eotaxin = eotaxin secretion from MLEC, direct treatment, ELISA; format: cell-based, mouse; settings: theophylline 1 μM, leucine 0.5 mM, resveratrol 200 nM, FIG. 5
Excerpt: as §1

IL 6 [1] = experiment: IL 6 secretion from MLEC, direct treatment, ELISA; format: cell-based, mouse; settings: FIG. 8
Experimental: (§2) Cells were grown in Dulbecco's modified eagle's medium (DMEM) containing a growth factor supplement (Cell Biologics # M1 166) which included 5% fetal bovine serum (FBS), heparin, EGF, hydrocortisone, L-glutamine and antibiotics at 37° C. in 5% CO2.
as §1
(§3) Following treatment, western blots or ELISA assays were performed on the MLEC to determine the level of various indicators of airway diseases, such as NFκB protein expression, eotaxin secretion, IL1-β secretion, cellular IL6 content or secretion, adiponectin receptor 1 protein expression, and adiponectin receptor 2 protein expression.

NFκB = NFκB protein expression in mouse primary lung endothelial cells (MLEC), direct treatment, Western blot; format: cell-based; settings: theophylline 1 μM, leucine 0.5 mM, resveratrol 200 nM, FIG. 1
phospho-NFκB = phospho-NFκB protein expression in MLEC, direct treatment, Western blot; format: cell-based, mouse; settings: theophylline 1 μM, leucine 0.5 mM, resveratrol 200 nM
Experimental: as §2
For Western blot, 2 μg (for NFκB) or 4 μg (for phospho-NFκB) of protein from the cell lysate was resolved on 10% Tris/HCL polyacrylamide gels (Criterion precast gel, Bio-Rad Laboratories, Hercules, Calif.), transferred to PVDF membranes (NFκB and phospho-NFκB), incubated in blocking buffer (3% BSA in TBS) and then incubated with primary antibody, washed and incubated with secondary horseradish peroxidase-conjugated antibody.
as §3

IL 6 [2] = experiment: cellular IL 6 content in MLEC, direct treatment; format: cell-based, mouse; settings: theophylline 1 μM, leucine 0.5 mM, resveratrol 200 nM, FIG. 7
Experimental: as §2, §1, §3

Compound | effect on IL1-β secretion (in words) (IL1-β) | effect on eotaxin secretion (in words) (eotaxin) | effect on IL 6 secretion (in words) (IL 6 [1]) | effect on NFκB protein expression relative to control (NFκB) | effect on phospho-NFκB levels (phospho-NFκB) | effect on cellular expression of IL 6 (IL 6 [2])
TNFα | increase | no significant effect | significant increase |  |  | 
Cn1c(=O)c2[nH]cnc2n(C)c1=O [theophylline] | no significant independent effect | no significant effect | no significant independent effect | no independent effect | no effect | unaffected

From patent US20150359771A1, “TREATING PULMONARY CONDITIONS” (priority 2013, published 2015)
